Test results from US20060252683A1, “Preparation of a peptide compound (SYRAPRO-2000) and its use for the activation of protein phosphatase-2A1 enzyme” (priority 2005, published 2006).
pEC50: −log10 of the molar value.

Columns and labels:
protein phosphatase-2C = test: Protein phosphatase-2C assay; assay type: biochemical, pig; details: various concentrations
Protocol: Protein phosphatase-1 (squares), protein phosphatase-2A1 (circles), protein phosphatase-2B (triangles) and protein phosphatase-2C (stars) were assayed in the presence of various concentrations of HIV-1 Vpr^71-96. 100 percent protein phosphatase activity is equivalent to 0.005 unit. Similar results were obtained in 3 independent experiments.
^32P-labeled phosphorylase a was prepared by phosphorylation of phosphorylase b with phosphorylase kinase as described in (Cohen 1988). ^32P-labeled casein was prepared by phosphorylation of casein with protein kinase A as described in (Tung 1986). Protein phosphatase-1 was purified from rabbit skeletal muscle as described in (Cohen 1988). Protein phosphatase-1 inhibitor-2 was purified from rabbit skeletal muscle as described in (Yang 1981). Protein phosphatase-2A0 and protein phosphatase-2A1 from pig brain and from pig liver were purified as described in (Tung 1985). Protein phosphatase-2A0 and protein phosphatase-2A1 from pig adipose tissue were highly purified by successive chromatography of pig subcutaneous adipose tissue extracts on DEAE Sepharose, Poly-L-lysine Agarose, Sephacryl S-300 HR and thiophosphorylase-a-Sepharose-4B as described in (Tung 1985). Protein phosphatase-2B was purified from pig brain as described in (Tung 1986). […]

protein phosphatase-2A1 = protein phosphatase-2A1 (Homo sapiens, UniProt P67775); test: Assay of purified protein phosphatase-2A1 in vitro with 32P-labeled phosphorylase a as substrate; assay type: biochemical; set-up: Protein phosphatase-2A1 purified from CD^4+ T cells as described in materials and method; endogenous in cells; host or cells: Jurkat cells; enzyme purified by DEAE Sepharose, Sephacryl S-300 HR and poly-L-lysine Agarose; details: purified enzyme from Jurkat cells, in vitro
Chain of protein phosphatase-2A1 (P67775 whole entry): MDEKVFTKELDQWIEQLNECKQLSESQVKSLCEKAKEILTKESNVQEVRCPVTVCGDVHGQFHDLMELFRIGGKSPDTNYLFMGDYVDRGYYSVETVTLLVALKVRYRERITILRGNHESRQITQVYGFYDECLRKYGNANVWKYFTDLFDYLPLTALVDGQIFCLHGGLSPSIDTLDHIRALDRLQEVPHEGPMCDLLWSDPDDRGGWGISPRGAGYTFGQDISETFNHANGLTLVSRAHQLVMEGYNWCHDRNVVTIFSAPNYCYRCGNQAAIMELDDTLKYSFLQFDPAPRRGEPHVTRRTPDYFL
Chain of protein phosphatase-2A1 (P30153 whole entry partner): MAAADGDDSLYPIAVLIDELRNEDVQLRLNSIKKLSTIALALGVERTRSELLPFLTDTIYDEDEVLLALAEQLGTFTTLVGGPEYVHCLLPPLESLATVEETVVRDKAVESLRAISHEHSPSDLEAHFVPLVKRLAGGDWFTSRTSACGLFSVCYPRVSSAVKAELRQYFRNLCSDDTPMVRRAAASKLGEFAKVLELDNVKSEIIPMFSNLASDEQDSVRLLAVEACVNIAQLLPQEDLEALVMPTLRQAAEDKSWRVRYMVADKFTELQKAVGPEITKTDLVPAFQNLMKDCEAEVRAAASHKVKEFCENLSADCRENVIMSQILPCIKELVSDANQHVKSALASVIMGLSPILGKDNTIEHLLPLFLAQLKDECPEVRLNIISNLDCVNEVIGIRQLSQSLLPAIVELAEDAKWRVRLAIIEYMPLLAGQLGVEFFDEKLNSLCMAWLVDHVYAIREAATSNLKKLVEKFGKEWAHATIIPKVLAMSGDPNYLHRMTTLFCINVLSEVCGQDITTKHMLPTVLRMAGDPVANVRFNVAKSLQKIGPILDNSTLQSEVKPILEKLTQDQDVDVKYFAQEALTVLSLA
Chain of protein phosphatase-2A1 (P63151 whole entry partner): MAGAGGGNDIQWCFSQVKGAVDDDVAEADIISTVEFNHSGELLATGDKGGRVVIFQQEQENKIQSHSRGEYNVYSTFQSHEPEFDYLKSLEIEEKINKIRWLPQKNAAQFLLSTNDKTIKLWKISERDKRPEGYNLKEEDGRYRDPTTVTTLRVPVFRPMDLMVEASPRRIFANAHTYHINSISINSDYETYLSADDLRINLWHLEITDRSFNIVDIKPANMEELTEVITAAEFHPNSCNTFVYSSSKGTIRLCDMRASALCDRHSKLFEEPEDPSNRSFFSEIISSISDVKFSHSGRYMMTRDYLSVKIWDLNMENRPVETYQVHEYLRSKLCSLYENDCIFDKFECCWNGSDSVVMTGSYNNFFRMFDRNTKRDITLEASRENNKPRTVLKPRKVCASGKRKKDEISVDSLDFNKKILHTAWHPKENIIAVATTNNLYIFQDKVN
Protocol: Protein phosphatase-2A1 purified from CD^4+ T cells as described in materials and method was assayed in the presence of various concentrations of SYRAPRO-2000. 100 percent protein phosphatase-2A1 activity is equivalent to 0.005 unit. Similar result were obtained in 3 independent experiments.
The effect of synthesized SYRAPRO-2000 on purified protein phosphatase-2A1 can be determined in vitro. Protein phosphatase-2A1 can be assayed using ^32P-labeled phosphorylase a as substrate in the presence of various concentrations of SYRAPRO-2000. Protein phosphatase-2A1 is activated in the presence of SYRAPRO-2000.
Protein phosphatase-1 was assayed as described in (Cohen 1988). Protein phosphatase-2B was assayed as described in (Tung 1986). Protein phosphatase-2C was assayed as described in (Tung 1986) except Ca^2+ and calmodulin were omitted. The assay of protein phosphatases-2A1 consisted of 0.02 ml of enzyme solution in 50 mM Imidazole-Cl pH 7.2, 0.2 mM EGTA, 0.1% (v/v) 2-mercaptoethanol and 1 mg/ml bovine serum albumin (Assay Buffer), 0.01 ml of inhibitor-2 at 600 nM in Assay Buffer, 0.01 ml of protamine at 60 μg/ml in Assay Buffer or 0.01 ml of SYRAPRO-2000 at different concentrations in Assay Buffer or 0.01 ml of Assay Buffer alone, 0.02 ml of ^32P-labeled phosphorylase a at 3 mg/ml in Assay Buffer containing 15 mM caffeine. The assay components were preincubated for 10 minutes prior to initiating the reaction with ^32P-labeled phosphorylase a. One unit of protein phosphatase activity is that amount of enzyme which catalyzes the release of 1 nmol of phosphate from ^32P-labeled substrate per min at 30° C.
Jurkat cells, a human transformed CD^4+ T cell line, were grown in grown in RPMI 1680 supplemented with 5% (v/v) fetal bovine serum at 37° C. in 95% air/5% CO2 in a humidified incubator. 2.4 liters of cells were collected by centrifugation at 4200 rpm in a low speed centrifuge for 10 minutes. The cells were homogenized in 80 ml of 50 mM Imidazole-Cl pH 7.2, 2 mM EGTA, 2 mM EDTA, 0.1% (v/v) 2-mercaptoethanol, 0.2 mM PMSF, 1 mM benzamidine, 4 μg/ml aprotinin, 4 μg/ml leupeptin, 4 μg/ml pepstatin, 0.1 mM TLCK, 0.1 mM TPCK, 1 mM sodium orthovanadate and 10% (v/v) glycerol by 40 strokes in a glass hand held homogenizer. The homogenate was centrifuged at 29000 rpm in a high speed centrifuge for 30 minutes. The supernatant (i.e the extract) was collected and loaded onto a DEAE Sepharose column (1.5×6 cm) equilibrated in 25 mM Imidazole-Cl pH 7.2, 0.2 mM EGTA, 0.1% (v/v) 2-mercaptoethanol, 0.1 mM PMSF, 1 mM benzamidine and 10% (v/v) glycerol (Buffer A). The column was washed with 50 ml of Buffer and then eluted with a 200 ml linear gradient of Buffer A to Buffer A plus 0.4 M NaCl. The eluted fractions were then assayed for phosphorylase phosphatase activity in the presence of 100 nM inhibitor-2 and 10 μg/ml of protamine. Two major peaks of phosphorylase phosphatase were observed. The first and second peak represent protein phosphatase-2A0 and protein phosphatase-2A1 respectively. […] The major activity eluting as a species of apparent molecular mass 300 kDa was collected, diluted four fold in Buffer A and loaded onto a poly-L-lysine Agarose Column (1.5×4 cm) equilibrated in Buffer A. The column was washed with 50 ml of Buffer A and then eluted with a 200 ml linear gradient of Buffer A to Buffer A plus 0.5 M NaCl. The active fractions eluting at ˜0.30 M NaCl salt concentration was pooled, concentrated by vacuum dialysis and stored at ^−20° C. in 50 mM Imidazole-Cl pH 7.2, 0.2 mM EGTA in the presence of 50% (v/v) glycerol. The highly purified enzyme consisted of the characteristic subunits of protein phosphatase-2A1, namely the A, B and C subunits. […] It is difficult to determine the activity of protein phosphatase-2A1 in CD^4+ T cell extract. However, assuming that it represented about 66 percent of total type 2A protein phosphatase activity in CD^4+ T cell extract, the specific activity of the enzyme in extract was estimated to be 0.3 unit/mg. […]

SMILES: CC[C@H](C)[C@H](NC(=O)[C@H](CCCNC(=N)N)NC(=O)[C@H](CO)NC(=O)[C@H](Cc1c[nH]cn1)NC(=O)[C@H](CCCNC(=N)N)NC(=O)[C@H](CS)NC(=O)CNC(=O)[C@@H](NC(=O)[C@H](CCCNC(=N)N)NC(=O)[C@H](Cc1ccccc1)NC(=O)[C@@H](N)Cc1c[nH]cn1)[C@@H](C)CC)C(=O)NCC(=O)N[C@H](C(=O)N[C@H](C(=O)N[C@@H](CCCNC(=N)N)C(=O)N[C@@H](CCC(N)=O)C(=O)N[C@@H](CCCNC(=N)N)C(=O)N[C@@H](CCCNC(=N)N)C(=O)N[C@@H](C)C(=O)N[C@@H](CCCNC(=N)N)C(=O)N[C@@H](CC(N)=O)C(=O)NCC(=O)N[C@@H](C)C(=O)N[C@@H](CO)C(=O)N[C@@H](CCCNC(=N)N)C(=O)N[C@@H](CO)C(=O)O)[C@@H](C)O)C(C)C [SYRAPRO-2000]
- effect on activity of protein phosphatase-2C (protein phosphatase-2C): negligible effect
- activation of protein phosphatase-2A1 (protein phosphatase-2A1): 7 fold
- concentration above which there was inhibition of protein phosphatase-2A1 (biphasic effect) (protein phosphatase-2A1): above 1000 nM
- pEC50 (protein phosphatase-2A1; read-out: half maximal activation of protein phosphatase-2A1): ~6.52
